Measurements published in ChEMBL document CHEMBL5154747, “Discovery of new carbonic anhydrase IX inhibitors as anticancer agents by toning the hydrophobic and hydrophilic rims of the active site to encounter the dual-tail approach” (Eur J Med Chem, 2022).

What follows are compounds tested on HL-60(TB) (assay: Anticancer activity against human HL-60(TB) cells assessed as cell growth inhibition at 10 uM incubated for 48 hrs by SRB assay relative to control). Settings: read-out: GI.
Assay type: functional

| Structure (SMILES) | inhibition of growth at 10 µM |
| --- | --- |
| NS(=O)(=O)c1ccc(Nc2nc(N/N=C/c3ccc([N+](=O)[O-])cc3)nc(Nc3ccccc3)n2)cc1 | 64% |

The compounds below were run on SK-OV-3 (assay: Anticancer activity against human SK-OV-3 cells assessed as cell growth inhibition at 10 uM incubated for 48 hrs by SRB assay relative to control). Settings: read-out: GI.
Assay type: functional

| Structure (SMILES) | inhibition of growth at 10 µM |
| --- | --- |
| NS(=O)(=O)c1ccc(Nc2nc(N/N=C/c3ccc([N+](=O)[O-])cc3)nc(Nc3ccccc3)n2)cc1 | 32% |

What follows are compounds tested on NCI-H522 (assay: Anticancer activity against human NCI-H522 cells assessed as cell growth inhibition at 10 uM incubated for 48 hrs by SRB assay relative to control). Settings: read-out: GI.
Assay type: functional

| Structure (SMILES) | inhibition of growth at 10 µM |
| --- | --- |
| NS(=O)(=O)c1ccc(Nc2nc(N/N=C/c3ccc([N+](=O)[O-])cc3)nc(Nc3ccccc3)n2)cc1 | 51% |

The compounds below were run on HCT-15 (assay: Anticancer activity against human HCT-15 cells assessed as cell growth inhibition at 10 uM incubated for 48 hrs by SRB assay relative to control). Settings: read-out: GI.
Assay type: functional

| Structure (SMILES) | inhibition of growth at 10 µM |
| --- | --- |
| NS(=O)(=O)c1ccc(Nc2nc(N/N=C/c3ccc([N+](=O)[O-])cc3)nc(Nc3ccccc3)n2)cc1 | 13% |

These compounds were tested on 786-0 (assay: Anticancer activity against human 786-0 cells assessed as cell growth inhibition at 10 uM incubated for 48 hrs by SRB assay relative to control). Settings: read-out: GI.
Assay type: functional

| Structure (SMILES) | inhibition of growth at 10 µM |
| --- | --- |
| NS(=O)(=O)c1ccc(Nc2nc(N/N=C/c3ccc([N+](=O)[O-])cc3)nc(Nc3ccccc3)n2)cc1 | 91% |

These compounds were tested on SN12C (assay: Anticancer activity against human SN12C cells assessed as cell growth inhibition at 10 uM incubated for 48 hrs by SRB assay relative to control). Settings: read-out: GI.
Assay type: functional

| Structure (SMILES) | inhibition of growth at 10 µM |
| --- | --- |
| NS(=O)(=O)c1ccc(Nc2nc(N/N=C/c3ccc([N+](=O)[O-])cc3)nc(Nc3ccccc3)n2)cc1 | 72% |

These compounds were tested on Hs-578T (assay: Anticancer activity against human Hs-578T cells assessed as cell growth inhibition at 10 uM incubated for 48 hrs by SRB assay relative to control). Settings: read-out: GI.
Assay type: functional

| Structure (SMILES) | inhibition of growth at 10 µM |
| --- | --- |
| NS(=O)(=O)c1ccc(Nc2nc(N/N=C/c3ccc([N+](=O)[O-])cc3)nc(Nc3ccccc3)n2)cc1 | 46% |

These compounds were tested on LOX IMVI (assay: Anticancer activity against human LOX IMVI cells assessed as cell growth inhibition at 10 uM incubated for 48 hrs by SRB assay relative to control). Settings: read-out: GI.
Assay type: functional

| Structure (SMILES) | inhibition of growth at 10 µM |
| --- | --- |
| NS(=O)(=O)c1ccc(Nc2nc(N/N=C/c3ccc([N+](=O)[O-])cc3)nc(Nc3ccccc3)n2)cc1 | 120% |

The compounds below were run on OVCAR-8 (assay: Anticancer activity against human OVCAR-8 cells assessed as cell growth inhibition at 10 uM incubated for 48 hrs by SRB assay relative to control). Settings: read-out: GI.
Assay type: functional

| Structure (SMILES) | inhibition of growth at 10 µM |
| --- | --- |
| NS(=O)(=O)c1ccc(Nc2nc(N/N=C/c3ccc([N+](=O)[O-])cc3)nc(Nc3ccccc3)n2)cc1 | 66% |

The compounds below were run on RPMI-8226 (assay: Anticancer activity against human RPMI-8226 cells assessed as cell growth inhibition at 10 uM incubated for 48 hrs by SRB assay relative to control). Settings: read-out: GI.
Assay type: functional

| Structure (SMILES) | inhibition of growth at 10 µM |
| --- | --- |
| NS(=O)(=O)c1ccc(Nc2nc(N/N=C/c3ccc([N+](=O)[O-])cc3)nc(Nc3ccccc3)n2)cc1 | 56% |

Each compound was assayed on SR (assay: Anticancer activity against human SR cells assessed as cell growth inhibition at 10 uM incubated for 48 hrs by SRB assay relative to control). Settings: read-out: GI.
Assay type: functional

| Structure (SMILES) | inhibition of growth at 10 µM |
| --- | --- |
| NS(=O)(=O)c1ccc(Nc2nc(N/N=C/c3ccc([N+](=O)[O-])cc3)nc(Nc3ccccc3)n2)cc1 | 84% |

What follows are compounds tested on SNB-75 (assay: Anticancer activity against human SNB-75 cells assessed as cell growth inhibition at 10 uM incubated for 48 hrs by SRB assay relative to control). Settings: read-out: GI.
Assay type: functional

| Structure (SMILES) | inhibition of growth at 10 µM |
| --- | --- |
| NS(=O)(=O)c1ccc(Nc2nc(N/N=C/c3ccc([N+](=O)[O-])cc3)nc(Nc3ccccc3)n2)cc1 | 54% |

The compounds below were run on NCI-H23 (assay: Anticancer activity against human NCI-H23 cells assessed as cell growth inhibition at 10 uM incubated for 48 hrs by SRB assay relative to control). Settings: read-out: GI.
Assay type: functional

| Structure (SMILES) | inhibition of growth at 10 µM |
| --- | --- |
| NS(=O)(=O)c1ccc(Nc2nc(N/N=C/c3ccc([N+](=O)[O-])cc3)nc(Nc3ccccc3)n2)cc1 | 87% |

The compounds below were run on UACC-62 (assay: Anticancer activity against human UACC-62 cells assessed as cell growth inhibition at 10 uM incubated for 48 hrs by SRB assay relative to control). Settings: read-out: GI.
Assay type: functional

| Structure (SMILES) | inhibition of growth at 10 µM |
| --- | --- |
| NS(=O)(=O)c1ccc(Nc2nc(N/N=C/c3ccc([N+](=O)[O-])cc3)nc(Nc3ccccc3)n2)cc1 | 54% |

These compounds were tested on Malme-3M (assay: Anticancer activity against human Malme-3M cells assessed as cell growth inhibition at 10 uM incubated for 48 hrs by SRB assay relative to control). Settings: read-out: GI.
Assay type: functional

| Structure (SMILES) | inhibition of growth at 10 µM |
| --- | --- |
| NS(=O)(=O)c1ccc(Nc2nc(N/N=C/c3ccc([N+](=O)[O-])cc3)nc(Nc3ccccc3)n2)cc1 | 63% |

What follows are compounds tested on T47D (assay: Anticancer activity against human T47D cells assessed as cell growth inhibition at 10 uM incubated for 48 hrs by SRB assay relative to control). Settings: read-out: GI.
Assay type: functional

| Structure (SMILES) | inhibition of growth at 10 µM |
| --- | --- |
| NS(=O)(=O)c1ccc(Nc2nc(N/N=C/c3ccc([N+](=O)[O-])cc3)nc(Nc3ccccc3)n2)cc1 | 85% |

What follows are compounds tested on ACHN (assay: Anticancer activity against human ACHN cells assessed as cell growth inhibition at 10 uM incubated for 48 hrs by SRB assay relative to control). Settings: read-out: GI.
Assay type: functional

| Structure (SMILES) | inhibition of growth at 10 µM |
| --- | --- |
| NS(=O)(=O)c1ccc(Nc2nc(N/N=C/c3ccc([N+](=O)[O-])cc3)nc(Nc3ccccc3)n2)cc1 | 17% |

Each compound was assayed on EKVX (assay: Anticancer activity against human EKVX cells assessed as cell growth inhibition at 10 uM incubated for 48 hrs by SRB assay relative to control). Settings: read-out: GI.
Assay type: functional

| Structure (SMILES) | inhibition of growth at 10 µM |
| --- | --- |
| NS(=O)(=O)c1ccc(Nc2nc(N/N=C/c3ccc([N+](=O)[O-])cc3)nc(Nc3ccccc3)n2)cc1 | 16% |

What follows are compounds tested on SF-539 (assay: Anticancer activity against human SF-539 cells assessed as cell growth inhibition at 10 uM incubated for 48 hrs by SRB assay relative to control). Settings: read-out: GI.
Assay type: functional

| Structure (SMILES) | inhibition of growth at 10 µM |
| --- | --- |
| NS(=O)(=O)c1ccc(Nc2nc(N/N=C/c3ccc([N+](=O)[O-])cc3)nc(Nc3ccccc3)n2)cc1 | 136% |

These compounds were tested on K562 (assay: Anticancer activity against human K562 cells assessed as cell growth inhibition at 10 uM incubated for 48 hrs by SRB assay relative to control). Settings: read-out: GI.
Assay type: functional

| Structure (SMILES) | inhibition of growth at 10 µM |
| --- | --- |
| NS(=O)(=O)c1ccc(Nc2nc(N/N=C/c3ccc([N+](=O)[O-])cc3)nc(Nc3ccccc3)n2)cc1 | 79% |
